The target in the experiment is PI3Kδ (Homo sapiens (Human), UniProt O00329). Kind of experiment: PI3K Enzyme Assay (Example A2), [γ-33P]ATP filter plate. The class given is biochemical. The protocol: Example A2: PI3K Enzyme Assay
Lipid kinase substrate, phosphoinositol-4,5-bisphosphate (PIP2), are purchased from Echelon Biosciences (Salt Lake City, Utah). PI3K isoforms α, β, δ and γ are purchased from Millipore (Bedford, Mass.). ATP, MgCl2, DTT, EDTA, MOPS and CHAPS are purchased from Sigma-Aldrich (St. Louis, Mo.).
The kinase reaction are conducted in clear-bottom 96-well plate from Thermo Fisher Scientific in a final volume of 24 μL. Inhibitors are first diluted serially in DMSO and added to the plate wells before the addition of other reaction components. The final concentration of DMSO in the assay is 0.5%. The PI3K assays are carried out at room temperature in 20 mM MOPS, pH 6.7, 10 mM MgCl2, 5 mM DTT and CHAPS 0.03%. The reaction mixture is prepared containing 50 µM PIP2, kinase and varying concentration of inhibitors. Reactions are initiated by the addition of ATP containing 2.2 μCi [γ-^33P]ATP to a final concentration of 1000 μM. The final concentration of PI3K isoforms α, β, δ and γ in the assay were 1.3, 9.4, 2.9 and 10.8 nM, respectively. Reactions are incubated for 180 minutes and terminated by the addition of 100 μL of 1 M potassium phosphate pH 8.0, 30 mM EDTA quench buffer. A 100 μL aliquot of the reaction solution are then transferred to 96-well Millipore MultiScreen IP […] PVDF filter plate (The filter plate is prewetted with 200 μL 100% ethanol, distilled water, and 1 M potassium phosphate pH 8.0, respectively). The filter plate is aspirated on a Millipore Manifold under vacuum and washed with 18×200 μL wash buffer containing 1 M potassium phosphate pH 8.0 and 1 mM ATP. After drying by aspiration and blotting, the plate is air dried in an incubator at 37° C. overnight. Packard TopCount adapter (Millipore) is then attached to the plate followed with addition of 120 μL Microscint 20 scintillation cocktail (Perkin Elmer) in each well. After the plate sealing, the radioactivity of the product is determined by scintillation counting on Topcount (Perkin-Elmer). IC50 determination is performed by fitting the curve of percent control activity versus the log of the inhibitor concentration using the GraphPad Prism 3.0 software.

pIC50: −log10 of the molar value.

PI3Kδ, sequence (O00329 whole entry, canonical isoform): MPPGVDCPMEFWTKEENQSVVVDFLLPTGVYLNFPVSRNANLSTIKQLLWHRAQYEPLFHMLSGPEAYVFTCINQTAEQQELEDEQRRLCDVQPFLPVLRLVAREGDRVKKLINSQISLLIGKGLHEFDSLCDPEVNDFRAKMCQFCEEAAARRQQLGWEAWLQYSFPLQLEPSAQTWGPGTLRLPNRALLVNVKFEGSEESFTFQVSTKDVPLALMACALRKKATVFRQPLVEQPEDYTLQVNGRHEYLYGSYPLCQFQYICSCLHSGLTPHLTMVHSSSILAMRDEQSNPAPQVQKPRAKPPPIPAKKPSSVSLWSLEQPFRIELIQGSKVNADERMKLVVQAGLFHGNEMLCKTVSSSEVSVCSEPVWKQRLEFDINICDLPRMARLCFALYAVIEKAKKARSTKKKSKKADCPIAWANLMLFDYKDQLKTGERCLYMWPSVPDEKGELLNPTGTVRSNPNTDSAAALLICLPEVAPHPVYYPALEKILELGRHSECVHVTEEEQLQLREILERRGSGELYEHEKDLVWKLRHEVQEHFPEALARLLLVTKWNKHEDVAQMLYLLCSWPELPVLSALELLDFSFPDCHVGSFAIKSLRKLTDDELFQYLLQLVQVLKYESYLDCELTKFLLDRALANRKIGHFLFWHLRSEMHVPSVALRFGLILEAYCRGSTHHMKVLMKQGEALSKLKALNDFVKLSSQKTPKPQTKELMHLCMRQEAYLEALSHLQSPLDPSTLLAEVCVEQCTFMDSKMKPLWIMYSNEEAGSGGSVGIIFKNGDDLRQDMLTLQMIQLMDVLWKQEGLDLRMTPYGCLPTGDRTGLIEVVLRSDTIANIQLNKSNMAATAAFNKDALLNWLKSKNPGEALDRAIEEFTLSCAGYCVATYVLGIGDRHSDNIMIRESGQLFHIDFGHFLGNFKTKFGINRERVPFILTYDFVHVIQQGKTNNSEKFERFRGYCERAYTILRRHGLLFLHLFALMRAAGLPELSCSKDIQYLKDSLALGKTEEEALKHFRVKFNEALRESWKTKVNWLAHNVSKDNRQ
PI3Kδ, sequence (P27986 whole entry partner, canonical isoform): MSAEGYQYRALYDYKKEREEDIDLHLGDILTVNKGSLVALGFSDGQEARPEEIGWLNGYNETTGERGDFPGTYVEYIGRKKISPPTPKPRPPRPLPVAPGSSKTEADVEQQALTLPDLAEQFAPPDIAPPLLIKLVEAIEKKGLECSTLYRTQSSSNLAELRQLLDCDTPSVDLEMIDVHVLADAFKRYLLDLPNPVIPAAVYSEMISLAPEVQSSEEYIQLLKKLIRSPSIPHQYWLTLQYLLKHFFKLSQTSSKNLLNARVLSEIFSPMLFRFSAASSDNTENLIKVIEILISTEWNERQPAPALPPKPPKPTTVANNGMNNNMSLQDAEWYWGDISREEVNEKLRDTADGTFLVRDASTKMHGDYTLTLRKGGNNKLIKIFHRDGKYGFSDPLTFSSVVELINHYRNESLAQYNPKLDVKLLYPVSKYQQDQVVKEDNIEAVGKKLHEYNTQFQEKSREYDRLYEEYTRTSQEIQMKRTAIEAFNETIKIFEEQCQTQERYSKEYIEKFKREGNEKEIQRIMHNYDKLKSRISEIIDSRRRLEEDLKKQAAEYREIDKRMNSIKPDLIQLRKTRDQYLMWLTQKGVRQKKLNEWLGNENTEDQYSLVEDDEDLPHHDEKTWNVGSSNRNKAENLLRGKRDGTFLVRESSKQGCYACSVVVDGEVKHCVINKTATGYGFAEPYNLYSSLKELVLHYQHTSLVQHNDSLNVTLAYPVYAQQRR

On to `Cc1nn(C(C)c2cc(Cl)c(F)c3c2OC(C)CN(S(C)(=O)=O)C3)c2ncnc(N)c12` (single isomer, unassigned) [Example 38, 1-{1-[7-Chloro-6-fluoro-2-methyl-4-(methylsulfonyl)-2,3,4,5-tetrahydro-1,4-benzoxazepin-9-yl]ethyl}-3-methyl-1H-pyrazolo[3,4-d]pyrimidin-4-amine], for which the negative-log IC50 (pIC50) is < 6.10.

Take `CCC1CN(CCO)Cc2c(C#N)c(Cl)cc(C(C)n3nc(C)c4c(N)ncnc43)c2O1` (single isomer, unassigned) [Example 69, 9-[1-(4-Amino-3-methyl-1H-pyrazolo[3,4-d]pyrimidin-1-yl)ethyl]-7-chloro-2-ethyl-4-(2-hydroxyethyl)-2,3,4,5-tetrahydro-1,4-benzoxazepine-6-carbonitrile]: the pIC50 was ≥ 7.00.

Regarding `Cc1nn(C(C)c2cc(Cl)c(C#N)c3c2OC(C)CN(C2CN(C(=O)NC(C)C)C2)C3)c2ncnc(N)c12` (single isomer, unassigned) [Example 102, 3-[9-[1-(4-amino-3-methyl-1H-pyrazolo[3,4-d]pyrimidin-1-yl)ethyl]-7-chloro-6-cyano-2-methyl-2,3-dihydro-1,4-benzoxazepin-4(5H)-yl]-N-isopropylazetidine-1-carboxamide], the negative logarithm of the IC50 (pIC50) was ≥ 7.00.

Consider `Cc1nn(C(C)c2cc(Cl)c(C#N)c3c2OC(C)CN(CC(N)=O)C3)c2ncnc(N)c12` (single isomer, unassigned) [Example 109, 2-[9-[1-(4-amino-3-methyl-1H-pyrazolo[3,4-d]pyrimidin-1-yl)ethyl]-7-chloro-6-cyano-2-methyl-2,3-dihydro-1,4-benzoxazepin-4(5H)-yl]acetamide], for which the negative-log IC50 (pIC50) is ≥ 7.00.

On to `Cc1nn(C(C)c2cc(Cl)c(F)c3c2O[C@@H](C)CN(C2CC(C(N)=O)C2)C3)c2ncnc(N)c12` (stereo partly shown) [Example 43], for which the negative logarithm of the IC50 (pIC50) is ≥ 7.00.

Turning to `Cc1nn(C(C)c2cc(Cl)c(C#N)c3c2OCCN(C2CN(CCO)C2)C3)c2ncnc(N)c12` (stereo not shown) [Example 47, 9-[1-(4-amino-3-methyl-1H-pyrazolo[3,4-d]pyrimidin-1-yl)ethyl]-7-chloro-4-[1-(2-hydroxyethyl)azetidin-3-yl]-2,3,4,5-tetrahydro-1,4-benzoxazepine-6-carbonitrile], the pIC50 was ≥ 7.00.

For `COCCN1Cc2c(C#N)c(Cl)cc(C(C)n3nc(C)c4c(N)ncnc43)c2OC(C)C1` (single isomer, unassigned) [Example 112, 9-[1-(4-amino-3-methyl-1H-pyrazolo[3,4-d]pyrimidin-1-yl)ethyl]-7-chloro-4-(2-methoxyethyl)-2-methyl-2,3,4,5-tetrahydro-1,4-benzoxazepine-6-carbonitrile], the pIC50 was ≥ 7.00.

As to `CCOC(=O)N1CC(N2CCOc3c(C(C)n4nc(C)c5c(N)ncnc54)cc(Cl)c(C#N)c3C2)C1` (stereo not shown) [Example 92, ethyl 3-[9-[1-(4-amino-3-methyl-1H-pyrazolo[3,4-d]pyrimidin-1-yl)ethyl]-7-chloro-6-cyano-2,3-dihydro-1,4-benzoxazepin-4(5H)-yl]azetidine-1-carboxylate], the pIC50 was ≥ 7.00.

Regarding `Cc1nn(C(C)c2cc(Cl)c(C#N)c3c2OC(C)CN(C2CN(CCO)C2)C3)c2ncnc(N)c12` (single isomer, unassigned) [Example 104, 9-[1-(4-amino-3-methyl-1H-pyrazolo[3,4-d]pyrimidin-1-yl)ethyl]-7-chloro-4-[1-(2-hydroxyethyl)azetidin-3-yl]-2-methyl-2,3,4,5-tetrahydro-1,4-benzoxazepine-6-carbonitrile], the negative logarithm of the IC50 (pIC50) was ≥ 7.00.

In the case of `CC(=O)N1CC(N2Cc3c(C#N)c(Cl)cc(C(C)n4nc(C)c5c(N)ncnc54)c3OC(C)C2)C1` (single isomer, unassigned) [Example 48, 4-(1-Acetylazetidin-3-yl)-9-[1-(4-amino-3-methyl-1H-pyrazolo[3,4-d]pyrimidin-1-yl)ethyl]-7-chloro-2-methyl-2,3,4,5-tetrahydro-1,4-benzoxazepine-6-carbonitrile], the negative-log IC50 (pIC50) was 6.30 to 7.00.

Regarding `CNC(=O)C1CC(N2Cc3c(C#N)c(Cl)cc(C(C)n4nc(C)c5c(N)ncnc54)c3OC(C)C2)C1` (single isomer, unassigned) [Example 113, 3-[9-[1-(4-amino-3-methyl-1H-pyrazolo[3,4-d]pyrimidin-1-yl)ethyl]-7-chloro-6-cyano-2-methyl-2,3-dihydro-1,4-benzoxazepin-4(5H)-yl]-N-methylcyclobutanecarboxamide], the pIC50 was ≥ 7.00.

Turning to `Cc1nn(C(C)c2cc(Cl)c(F)c3c2OC(C)CN(C2CN(C(N)=O)C2)C3)c2ncnc(N)c12` (single isomer, unassigned) [Example 83, 3-[9-[1-(4-amino-3-methyl-1H-pyrazolo[3,4-d]pyrimidin-1-yl)ethyl]-7-chloro-6-fluoro-2-methyl-2,3-dihydro-1,4-benzoxazepin-4(5H)-yl]azetidine-1-carboxamide], the pIC50 is ≥ 7.00.

As for `Cc1nn(C(C)c2cc(Cl)c(F)c3c2OC(C)CN(S(C)(=O)=O)C3)c2ncnc(N)c12` (single isomer, unassigned) [Example 39, 1-{1-[7-Chloro-6-fluoro-2-methyl-4-(methylsulfonyl)-2,3,4,5-tetrahydro-1,4-benzoxazepin-9-yl]ethyl}-3-methyl-1H-pyrazolo[3,4-d]pyrimidin-4-amine], the negative logarithm of the IC50 (pIC50) was < 6.10.

On to `Cc1nn(C(C)c2cc(Cl)c(C#N)c3c2OC(C)CN(C2CN(CCO)C2)C3)c2ncnc(N)c12` (single isomer, unassigned) [Example 103, 9-[1-(4-amino-3-methyl-1H-pyrazolo[3,4-d]pyrimidin-1-yl)ethyl]-7-chloro-4-[1-(2-hydroxyethyl)azetidin-3-yl]-2-methyl-2,3,4,5-tetrahydro-1,4-benzoxazepine-6-carbonitrile], for which the pIC50 was ≥ 7.00.

For the molecule `Cc1nn(C(C)c2cc(Cl)c(F)c3c2O[C@@H](C)CN(C2CN(CC(N)=O)C2)C3)c2ncnc(N)c12` (single isomer, unassigned) [Example 87], the negative-log IC50 (pIC50) was 6.30 to 7.00.

`CCC(=O)N1CC(N2Cc3c(C#N)c(Cl)cc(C(C)n4nc(C)c5c(N)ncnc54)c3OC(C)C2)C1` (single isomer, unassigned) [Example 95, 9-[1-(4-amino-3-methyl-1H-pyrazolo[3,4-d]pyrimidin-1-yl)ethyl]-7-chloro-2-methyl-4-(1-propionylazetidin-3-yl)-2,3,4,5-tetrahydro-1,4-benzoxazepine-6-carbonitrile]: the negative-log IC50 (pIC50) was ≥ 7.00.

`Cc1nn(C(C)c2cc(Cl)c(C#N)c3c2OC(C)CN(C2CN(CC(N)=O)C2)C3)c2ncnc(N)c12` (single isomer, unassigned) [Example 51, 2-{3-[9-[1-(4-Amino-3-methyl-1H-pyrazolo[3,4-d]pyrimidin-1-yl)ethyl]-7-chloro-6-cyano-2-methyl-2,3-dihydro-1,4-benzoxazepin-4(5H)-yl]azetidin-1-yl}acetamide]: the negative logarithm of the IC50 (pIC50) is ≥ 7.00.

For the molecule `Cc1nn(C(C)c2cc(Cl)c(C#N)c3c2OCCN(CCO)C3)c2ncnc(N)c12` (stereo not shown) [Example 58, 9-[1-(4-Amino-3-methyl-1H-pyrazolo[3,4-d]pyrimidin-1-yl)ethyl]-7-chloro-4-(2-hydroxyethyl)-2,3,4,5-tetrahydro-1,4-benzoxazepine-6-carbonitrile], the pIC50 was ≥ 7.00.

With `CCC(=O)N1CC(N2CCOc3c(C(C)n4nc(C)c5c(N)ncnc54)cc(Cl)c(C#N)c3C2)C1` (stereo not shown) [Example 89, 9-[1-(4-amino-3-methyl-1H-pyrazolo[3,4-d]pyrimidin-1-yl)ethyl]-7-chloro-4-(1-propionylazetidin-3-yl)-2,3,4,5-tetrahydro-1,4-benzoxazepine-6-carbonitrile], the negative-log IC50 (pIC50) is ≥ 7.00.

Regarding `Cc1nn(C(C)c2cc(Cl)c(F)c3c2OC(C)CN(C[C@@H](C)O)C3)c2ncnc(N)c12` (single isomer, unassigned) [Example 78], the pIC50 was ≥ 7.00.

As to `CCNC(=O)N1CC(N2Cc3c(C#N)c(Cl)cc(C(C)n4nc(C)c5c(N)ncnc54)c3OC(C)C2)C1` (single isomer, unassigned) [Example 97, 3-[9-[1-(4-amino-3-methyl-1H-pyrazolo[3,4-d]pyrimidin-1-yl)ethyl]-7-chloro-6-cyano-2-methyl-2,3-dihydro-1,4-benzoxazepin-4(5H)-yl]-N-ethylazetidine-1-carboxamide], the pIC50 was ≥ 7.00.

In the case of `Cc1nn(C(C)c2cc(Cl)c(F)c3c2OC(C)CN(C2CN(C(N)=O)C2)C3)c2ncnc(N)c12` (single isomer, unassigned) [Example 84, 3-[9-[1-(4-amino-3-methyl-1H-pyrazolo[3,4-d]pyrimidin-1-yl)ethyl]-7-chloro-6-fluoro-2-methyl-2,3-dihydro-1,4-benzoxazepin-4(5H)-yl]azetidine-1-carboxamide], the negative-log IC50 (pIC50) is ≥ 7.00.

Broadly, the pIC50 is the IC50 on a negative log10 scale, so that one unit is a factor of ten.

Source of the values: patent US9944646B2, “Bicyclic azaheterocyclobenzylamines as PI3K inhibitors” (Incyte Corporation, priority 2012, dated 2018).
